Results on three compounds are retold here after ChEMBL document CHEMBL1146572, “Isolation and characterization of miscellaneous secondary metabolites of Deprea subtriflora” (J Nat Prod, 2003).

Structures are written as SMILES.

Assay [1] in a line: Growth inhibition of mouse Hepa-1c1c7 cells. It counts as cell-based.
Assay [2] in a line: Chemoprevention index, ratio of IC50 for mouse Hepa-1c1c7 cells to CD for NADPH:quinone reductase specific activity in mouse Hepa-1c1c7 cells. It counts as functional.

One may read the IC50 as the concentration that gives 50% inhibition.

The compound `C[C@H]1CC([C@](C)(O)[C@@]2(O)CC[C@H]3[C@@H]4C[C@H]5O[C@]56[C@@H](O)C=CC(=O)[C@]6(C)[C@H]4CC[C@@]32C)OC(=O)[C@@H]1C` (stereo partly specified) [PHILADELPHICALACTONE A] had an IC50 in assay [1] of 0.47 µM. The Ratio in assay [2] is reported as 11.8.

In assay [1], `C[C@H]1C(=O)OC(C2O[C@]34C[C@H]5[C@@H](C[C@H]6O[C@H]7CC(=O)[C@@]5(C)[C@@]6(O)C7=O)[C@@H]5C[C@@H](O3)[C@@H]([C@@H]54)[C@@]2(C)O)[C@@H]1C` (stereo partly specified) [SUBTRIFLORALACTONE K] returned a half-inhibitory concentration (IC50) of 4.8 µM. Further, in assay [2], the Ratio stood at 13.3.

In assay [1], `C[S+]([O-])CCCCN=C=S` (stereo unspecified) [SULFORAPHANE] registered an IC50 of 11.7 µM. Moreover, the Ratio in assay [2] is on record as 23.9.
